{"source": "ChEMBL document CHEMBL5390201", "about": "“The Natural Alkaloid (-)-N-Hydroxyapiosporamide Suppresses Colorectal Tumor Progression as an NF-κB Pathway Inhibitor by Targeting the TAK1-TRAF6 Complex” (J Nat Prod, 2023)", "key": {"HT-29 [1]": {"test_system": "HT-29", "assay": "Induction of apoptosis in human HT-29 cells assessed as late apoptotic cells at 1 uM incubated for 24 hrs by Annexin V-FITC/PI staining based flow cytometric analysis (reference value: 1.56 %)", "assay_type": "functional"}, "HCT-116 [2]": {"test_system": "HCT-116", "assay": "Induction of apoptosis in human HCT-116 cells assessed as late apoptotic cells at 0.25 uM incubated for 24 hrs by Annexin V-FITC/PI staining based flow cytometric analysis (reference value: 2.9 %)", "assay_type": "functional"}, "HT-29 [3]": {"test_system": "HT-29", "assay": "Induction of autophagic cell death in human HT-29 cells at 1 to 10 uM pretreated with 3-methyladenine for 1 hr followed by compound addition and measured after 24 hrs by SRB assay", "assay_type": "functional, cell-based", "settings": "dose 1-10 µM"}, "HCT-116 [4]": {"test_system": "HCT-116", "assay": "Induction of apoptosis in human HCT-116 cells assessed as inhibition of caspase 8 protein expression measured for 24 hrs by Western blot analysis", "assay_type": "functional, cell-based", "settings": "dose 0-10 µM"}, "HT-29 [5]": {"test_system": "HT-29", "assay": "Induction of autophagic flux in human HT-29 cells assessed as increase in LC3 protein expression preincubated with chloroquine for 1 hr followed by compound addition and measured after 24 hrs by Western blot analysis", "assay_type": "functional, cell-based"}, "[6]": {"molecular_target": "T1, Nuclear factor NF-kappa-B complex (Homo sapiens) (UniProt Q00653+P19838+Q04206)", "T1 sequence (P19838 whole entry, looked up)": "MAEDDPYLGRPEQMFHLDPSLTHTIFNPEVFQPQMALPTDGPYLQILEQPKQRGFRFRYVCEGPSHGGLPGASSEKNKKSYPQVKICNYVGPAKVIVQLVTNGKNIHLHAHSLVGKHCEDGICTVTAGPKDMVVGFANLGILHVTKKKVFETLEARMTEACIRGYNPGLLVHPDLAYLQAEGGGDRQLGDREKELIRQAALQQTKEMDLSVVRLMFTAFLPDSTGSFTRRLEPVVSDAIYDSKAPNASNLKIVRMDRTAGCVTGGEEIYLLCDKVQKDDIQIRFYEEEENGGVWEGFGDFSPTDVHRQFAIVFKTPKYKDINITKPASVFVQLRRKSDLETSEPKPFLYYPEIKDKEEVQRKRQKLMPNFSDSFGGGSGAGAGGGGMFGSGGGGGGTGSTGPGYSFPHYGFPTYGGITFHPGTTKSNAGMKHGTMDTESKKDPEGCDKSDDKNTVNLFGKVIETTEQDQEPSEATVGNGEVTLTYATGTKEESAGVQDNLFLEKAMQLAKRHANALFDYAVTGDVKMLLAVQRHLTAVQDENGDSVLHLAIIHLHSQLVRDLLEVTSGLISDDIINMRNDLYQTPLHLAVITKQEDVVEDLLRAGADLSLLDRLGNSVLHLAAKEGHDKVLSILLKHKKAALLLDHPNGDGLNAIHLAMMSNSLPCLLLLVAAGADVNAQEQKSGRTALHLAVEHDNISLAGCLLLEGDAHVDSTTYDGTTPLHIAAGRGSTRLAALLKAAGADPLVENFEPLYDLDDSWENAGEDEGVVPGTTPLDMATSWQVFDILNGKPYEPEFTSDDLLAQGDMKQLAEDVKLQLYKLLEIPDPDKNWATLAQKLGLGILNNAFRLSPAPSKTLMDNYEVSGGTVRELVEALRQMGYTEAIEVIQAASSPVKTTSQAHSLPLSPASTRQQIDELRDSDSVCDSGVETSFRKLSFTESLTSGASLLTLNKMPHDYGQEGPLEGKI", "T1 sequence (Q00653 whole entry, looked up)": "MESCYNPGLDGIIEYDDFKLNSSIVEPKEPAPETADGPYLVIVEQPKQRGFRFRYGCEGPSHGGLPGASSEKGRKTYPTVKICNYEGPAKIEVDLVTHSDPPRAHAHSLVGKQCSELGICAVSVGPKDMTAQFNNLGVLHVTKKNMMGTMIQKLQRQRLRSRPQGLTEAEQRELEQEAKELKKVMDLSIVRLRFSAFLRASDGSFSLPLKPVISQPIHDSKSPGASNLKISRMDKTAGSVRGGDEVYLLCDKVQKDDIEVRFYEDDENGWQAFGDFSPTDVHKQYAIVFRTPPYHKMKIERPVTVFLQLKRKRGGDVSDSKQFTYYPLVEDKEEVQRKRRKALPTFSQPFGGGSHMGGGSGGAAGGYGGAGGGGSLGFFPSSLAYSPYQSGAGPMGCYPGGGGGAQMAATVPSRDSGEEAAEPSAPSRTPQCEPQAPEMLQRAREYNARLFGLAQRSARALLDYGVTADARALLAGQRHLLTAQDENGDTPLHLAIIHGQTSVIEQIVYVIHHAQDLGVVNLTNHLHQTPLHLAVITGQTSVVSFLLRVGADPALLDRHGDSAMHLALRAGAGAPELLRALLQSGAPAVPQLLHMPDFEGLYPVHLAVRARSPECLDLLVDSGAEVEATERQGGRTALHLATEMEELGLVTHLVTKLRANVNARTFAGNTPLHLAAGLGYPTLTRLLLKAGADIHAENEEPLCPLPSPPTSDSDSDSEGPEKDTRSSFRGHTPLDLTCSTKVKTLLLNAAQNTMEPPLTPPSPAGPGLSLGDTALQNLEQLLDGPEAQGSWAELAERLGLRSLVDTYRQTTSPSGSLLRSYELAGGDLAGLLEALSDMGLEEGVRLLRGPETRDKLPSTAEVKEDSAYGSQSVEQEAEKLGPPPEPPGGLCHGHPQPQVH", "T1 sequence (Q04206 whole entry, looked up)": "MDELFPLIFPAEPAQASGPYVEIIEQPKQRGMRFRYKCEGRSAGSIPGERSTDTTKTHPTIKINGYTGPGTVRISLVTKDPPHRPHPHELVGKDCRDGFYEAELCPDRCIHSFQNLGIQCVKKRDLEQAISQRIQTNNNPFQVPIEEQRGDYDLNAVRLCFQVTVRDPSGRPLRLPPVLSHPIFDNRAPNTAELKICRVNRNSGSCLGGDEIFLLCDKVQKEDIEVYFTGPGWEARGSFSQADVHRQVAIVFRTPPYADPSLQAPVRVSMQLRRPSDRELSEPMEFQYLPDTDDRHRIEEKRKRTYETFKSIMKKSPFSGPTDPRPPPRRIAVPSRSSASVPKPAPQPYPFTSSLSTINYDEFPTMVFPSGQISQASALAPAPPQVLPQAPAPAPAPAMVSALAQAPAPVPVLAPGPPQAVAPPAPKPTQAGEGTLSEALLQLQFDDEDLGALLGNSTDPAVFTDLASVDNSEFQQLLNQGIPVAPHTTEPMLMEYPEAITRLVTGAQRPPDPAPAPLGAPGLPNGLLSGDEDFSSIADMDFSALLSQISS", "assay": "Inhibition of TNF-alpha induced NFkappaB activation in human HCT-116 cells assessed as downregulation of E-selectin gene expression pretreated for 24 hrs followed by TNFalpha stimulation and measured after 2 hrs by quantitative RT-PCR analysis", "assay_type": "cell-based", "settings": "dose 1-10 µM, time 26.0 hrs"}, "[7]": {"assay": "Toxicity in athymic nude BALB/c mouse assessed as change in serum ALT level at 5 to 15 mg/kg, ip administered every other day and measured after 14 days", "assay_type": "organism-based", "settings": "in vivo, 336 h, dose 5-15 mg/kg, time 14 day"}, "HT-29 [8]": {"test_system": "HT-29", "assay": "Induction of apoptosis in human HT-29 cells assessed as early apoptotic cells at 1 uM incubated for 24 hrs by Annexin V-FITC/PI staining based flow cytometric analysis (reference value: 5.29 %)", "assay_type": "functional"}, "HT-29 [9]": {"test_system": "HT-29", "assay": "Induction of autophagic flux in human HT-29 cells assessed as increase in LC3I to LC3II conversion preincubated with chloroquine for 1 hr followed by compound addition and measured after 24 hrs by Western blot analysis", "assay_type": "functional, cell-based"}, "HT-29 [10]": {"test_system": "HT-29", "assay": "Induction of cell cycle arrest in human HT-29 cells assessed as decrease in Cdc25c protein expression upto 10 uM incubated for 24 hrs by Western blot analysis", "assay_type": "functional, cell-based"}, "HCT-116 [11]": {"test_system": "HCT-116", "assay": "Induction of cell cycle arrest in human HCT-116 cells assessed as decrease in Cdc2 protein expression upto 10 uM incubated for 24 hrs by Western blot analysis", "assay_type": "functional, cell-based"}, "[12]": {"assay": "Toxicity in athymic nude BALB/c mouse assessed as change in serum AKP level at 5 to 15 mg/kg, ip administered every other day and measured after 14 days", "assay_type": "organism-based", "settings": "in vivo, 336 h, dose 5-15 mg/kg, time 14 day"}, "Mus musculus [13]": {"test_system": "Mus musculus", "assay": "In vivo inhibition of NFkappaB activation in LPS-induced BALB/c mouse model of endotoxin shock assessed as reduction in IL6 level in serum at 5 mg/kg, ip pretreated for 4 hrs followed by LPS stimulation for 1 hr by ELISA", "assay_type": "functional, organism-based", "settings": "time 5.0 hrs"}, "HT-29 [14]": {"test_system": "HT-29", "assay": "Induction of apoptosis in human HT-29 cells assessed as necrotic cells at 5 uM preincubated with Z-VAD-FMK for 1 hr followed by compound addition and measured after 24 hrs by Annexin V-FITC/PI staining based flow cytometric analysis (reference value: 0.4 %)", "assay_type": "functional"}, "[15]": {"assay": "Toxicity in athymic nude BALB/c mouse xenografted with human HT-29 cells assessed as pathological changes in spleen at 5 to 15 mg/kg, ip administered every other day and measured after 14 days by hematoxylin and eosin staining-based microscopic analysis", "assay_type": "organism-based", "settings": "in vivo, 336 h, dose 5-15 mg/kg, time 14 day"}, "HT-29 [16]": {"test_system": "HT-29", "assay": "Induction of apoptosis in human HT-29 cells assessed as viable cells at 5 uM incubated for 24 hrs by Annexin V-FITC/PI staining based flow cytometric analysis (reference value: 93 %)", "assay_type": "functional", "settings": "read-out: Activity"}, "[17]": {"molecular_target": "T1, Nuclear factor NF-kappa-B complex (Homo sapiens)", "assay": "Inhibition of TNF-alpha induced NFkappaB activation in human HT-29 cells assessed as inhibition of IkappaBalpha phosphorylation at 1 to 10 uM pretreated for 24 hrs followed by TNFalpha stimulation for 10 mins by Western blot analysis", "assay_type": "cell-based", "settings": "dose 1-10 µM, time 1450.0 min"}, "HCT-116 [18]": {"test_system": "HCT-116", "assay": "Induction of cell cycle arrest in human HCT-116 cells assessed as decrease in Cdc25c protein expression upto 10 uM incubated for 24 hrs by Western blot analysis", "assay_type": "functional, cell-based"}, "HCT-116 [19]": {"test_system": "HCT-116", "assay": "Induction of apoptosis in human HCT-116 cells assessed as inhibition of caspase 3 protein expression measured for 24 hrs by Western blot analysis", "assay_type": "functional, cell-based", "settings": "dose 0-10 µM"}, "HT-29 [20]": {"test_system": "HT-29", "assay": "Induction of apoptosis in human HT-29 cells assessed as late apoptotic cells at 5 uM preincubated with Z-VAD-FMK for 1 hr followed by compound addition and measured after 24 hrs by Annexin V-FITC/PI staining based flow cytometric analysis (reference value: 7.01 %)", "assay_type": "functional"}, "Mus musculus [21]": {"test_system": "Mus musculus", "assay": "In vivo inhibition of NFkappaB activation in athymic BALB/c mouse xenografted with human HCT-116 cells assessed as reduction in MCP-1 gene expression in tumor at 15 mg/kg, ip administered every other day and measured after 14 days by qRT-PCR analysis", "assay_type": "functional, organism-based", "settings": "time 14.0 day"}, "HCT-116 [22]": {"test_system": "HCT-116", "assay": "Antitumor activity against human HCT-116 cells xenografted in athymic nude BALB/c mouse assessed as induction of autophagy by measuring increase in LC3B expression in tumor at 15 mg/kg, ip administered every other day and measured after 14 days by immunohistochemistry analysis", "assay_type": "functional, organism-based", "settings": "time 14.0 day"}, "HCT-116 [23]": {"test_system": "HCT-116", "assay": "Induction of cell cycle arrest in human HCT-116 cells assessed as decrease in CDK4 protein expression upto 10 uM incubated for 24 hrs by Western blot analysis", "assay_type": "functional, cell-based"}, "HCT-116 [24]": {"test_system": "HCT-116", "assay": "Induction of apoptosis in human HCT-116 cells assessed as late apoptotic cells at 5 uM preincubated with Z-VAD-FMK for 1 hr followed by compound addition and measured after 24 hrs by Annexin V-FITC/PI staining based flow cytometric analysis (reference value: 9.37 %)", "assay_type": "functional"}, "Mus musculus [25]": {"test_system": "Mus musculus", "assay": "Anti-inflammatory activity in AOM/DSS-induced BALB/c mouse model inflammatory bowel disease assessed as reduction in tumor number at 5 to 10 mg/kg, ip pretreated with AOM for 7 days further replaced with DSS for 7 days and repeated for 2 times followed by every 2 days compound treatment for […] starting from day 50 and measured once a week", "assay_type": "functional, organism-based", "settings": "dose 5-10 mg/kg, time 21.0 day"}, "HCT-116 [26]": {"test_system": "HCT-116", "assay": "Induction of autophagy in human HCT-116 cells assessed as increase in LC3I to LC3II conversion at 1 to 10 uM incubated for 24 hrs by Western blotting analysis", "assay_type": "functional, cell-based", "settings": "dose 1-10 µM"}, "[27]": {"assay": "Toxicity in athymic nude BALB/c mouse assessed as change in serum AST level at 5 to 15 mg/kg, ip administered every other day and measured after 14 days", "assay_type": "organism-based", "settings": "in vivo, 336 h, dose 5-15 mg/kg, time 14 day"}, "[28]": {"assay": "Toxicity in athymic nude BALB/c mouse xenografted with human HCT-116 cells assessed as pathological changes in spleen at 5 to 15 mg/kg, ip administered every other day and measured after 14 days by hematoxylin and eosin staining-based microscopic analysis", "assay_type": "organism-based", "settings": "in vivo, 336 h, dose 5-15 mg/kg, time 14 day"}, "HT-29 [29]": {"test_system": "HT-29", "assay": "Induction of cell cycle arrest in human HT-29 cells assessed as accumulation of cells at G0/G1 phase at 10 uM by RNase/PI staining based flow cytometry analysis (reference value: 50.73 %)", "assay_type": "functional"}, "HT-29 [30]": {"test_system": "HT-29", "assay": "Induction of cell cycle arrest in human HT-29 cells assessed as accumulation of cells at G0/G1 phase at 5 uM by RNase/PI staining based flow cytometry analysis (reference value: 50.73 %)", "assay_type": "functional"}}, "note": "Activity calls are given as the source filed them. The calls are words filed in the database; no cut-off is given here."}
{"smiles": "C[C@@H]1CC[C@H]2[C@H](C(=O)c3c(O)c([C@@]4(O)CC[C@@H](O)[C@H]5O[C@H]54)cn(O)c3=O)[C@H](C)C=C[C@@H]2C1", "values": [{"measurement": "Activity", "setting": "HT-29 [1]", "value": 7.39, "unit": "%"}, {"measurement": "Activity", "setting": "HCT-116 [2]", "value": 28.1, "unit": "%"}, {"measurement": "Activity", "setting": "HT-29 [3]", "value": "inactive"}, {"measurement": "Activity", "setting": "HCT-116 [4]", "value": "Dose-Dependent Effect"}, {"measurement": "Activity", "setting": "HT-29 [5]", "value": "Active"}, {"measurement": "inhibition", "setting": "[6]", "value": "Dose-Dependent Effect"}, {"measurement": "Activity", "setting": "[7]", "value": "Non-Toxic"}, {"measurement": "Activity", "setting": "HT-29 [8]", "value": 47.4, "unit": "%"}, {"measurement": "Activity", "setting": "HT-29 [9]", "value": "Active"}, {"measurement": "Activity", "setting": "HT-29 [10]", "value": "Active"}, {"measurement": "Activity", "setting": "HCT-116 [11]", "value": "Active"}, {"measurement": "Activity", "setting": "[12]", "value": "Non-Toxic"}, {"measurement": "inhibition", "setting": "Mus musculus [13]", "value": "Active"}, {"measurement": "Activity", "setting": "HT-29 [14]", "value": 0.15, "unit": "%"}, {"measurement": "Activity", "setting": "[15]", "value": "Non-Toxic"}, {"measurement": "viability at 5 µM", "setting": "HT-29 [16]", "value": 39.3, "unit": "%"}, {"measurement": "inhibition", "setting": "[17]", "value": "Active"}, {"measurement": "Activity", "setting": "HCT-116 [18]", "value": "Active"}, {"measurement": "Activity", "setting": "HCT-116 [19]", "value": "Dose-Dependent Effect"}, {"measurement": "Activity", "setting": "HT-29 [20]", "value": 17.2, "unit": "%"}, {"measurement": "inhibition", "setting": "Mus musculus [21]", "value": "Active"}, {"measurement": "Activity", "setting": "HCT-116 [22]", "value": "Active"}, {"measurement": "Activity", "setting": "HCT-116 [23]", "value": "Active"}, {"measurement": "Activity", "setting": "HCT-116 [24]", "value": 53.3, "unit": "%"}, {"measurement": "Activity", "setting": "Mus musculus [25]", "value": "Active"}, {"measurement": "Activity", "setting": "HCT-116 [26]", "value": "Active"}, {"measurement": "Activity", "setting": "[27]", "value": "Non-Toxic"}, {"measurement": "Activity", "setting": "[28]", "value": "Non-Toxic"}, {"measurement": "Activity", "setting": "HT-29 [29]", "value": 72.58, "unit": "%"}, {"measurement": "Activity", "setting": "HT-29 [30]", "value": 67.37, "unit": "%"}]}
